We go through 20 compounds from ChEMBL document CHEMBL1130662, “Preparation of meta-amidino-N,N-disubstituted anilines as potent inhibitors of coagulation factor Xa” (Bioorg Med Chem Lett, 1998).

Structures are written as SMILES.

The target of experiment [1] is T1, Coagulation factor X (Oryctolagus cuniculus, UniProt O19045).
T1 sequence (O19045 whole entry): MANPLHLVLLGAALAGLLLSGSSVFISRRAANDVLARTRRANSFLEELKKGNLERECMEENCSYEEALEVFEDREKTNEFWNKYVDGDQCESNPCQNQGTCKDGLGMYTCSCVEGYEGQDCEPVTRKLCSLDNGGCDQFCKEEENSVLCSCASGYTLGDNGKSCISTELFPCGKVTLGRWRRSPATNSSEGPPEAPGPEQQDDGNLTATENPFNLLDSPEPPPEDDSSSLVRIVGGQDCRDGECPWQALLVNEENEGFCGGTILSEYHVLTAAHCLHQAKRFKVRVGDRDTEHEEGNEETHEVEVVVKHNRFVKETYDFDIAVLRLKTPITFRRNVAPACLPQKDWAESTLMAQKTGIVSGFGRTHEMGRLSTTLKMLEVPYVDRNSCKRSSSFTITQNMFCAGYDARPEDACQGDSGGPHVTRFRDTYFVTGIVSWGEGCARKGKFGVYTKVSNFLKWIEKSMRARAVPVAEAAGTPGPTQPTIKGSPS
As to the kind of experiment: Inhibition of serine protease factor Xa enzyme.

The target in another experiment is Prothrombin (Homo sapiens, UniProt P00734). Put plainly: Inhibition of serine protease thrombin enzyme.
For another experiment, the target named is Trypsin (Homo sapiens, UniProt P07477+P07478+P35030). Put plainly: Inhibition of serine protease trypsin enzyme. The experiment is classed as protein assay, Oryctolagus cuniculus.
The target of experiment [2] is Tissue-type plasminogen activator (Homo sapiens, UniProt P00750). As to the kind of experiment: Compound was tested for the inhibition of serine protease tissue plasminogen activator enzyme. Further details: species or system Oryctolagus cuniculus.
The target of the next experiment is T2, Coagulation factor VII (Homo sapiens, UniProt P08709).
T2 sequence (P08709 whole entry): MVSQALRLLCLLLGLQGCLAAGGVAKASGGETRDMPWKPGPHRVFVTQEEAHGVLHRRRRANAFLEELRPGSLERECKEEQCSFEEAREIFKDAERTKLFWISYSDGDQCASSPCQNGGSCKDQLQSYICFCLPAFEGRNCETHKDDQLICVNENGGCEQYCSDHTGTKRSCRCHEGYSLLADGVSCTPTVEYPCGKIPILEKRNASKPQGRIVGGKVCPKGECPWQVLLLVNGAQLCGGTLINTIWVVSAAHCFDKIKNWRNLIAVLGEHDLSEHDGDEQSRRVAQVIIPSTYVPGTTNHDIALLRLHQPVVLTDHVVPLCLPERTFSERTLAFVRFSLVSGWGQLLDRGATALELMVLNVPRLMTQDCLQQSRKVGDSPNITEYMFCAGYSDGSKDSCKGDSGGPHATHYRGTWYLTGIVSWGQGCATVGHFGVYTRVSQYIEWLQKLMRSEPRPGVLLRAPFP
As to the kind of experiment: Compound was tested for the inhibition of serine protease factor VIIa enzyme. Also on record: species or system Oryctolagus cuniculus.

The target of the next experiment is Plasminogen (Homo sapiens, UniProt P00747). Put plainly: Compound was tested for the inhibition of serine protease plasmin enzyme. Also on record: species or system Oryctolagus cuniculus.
The nature of experiment [3]: Compound was tested for the inhibition of serine protease complement factor I enzyme. Also on record: species or system Oryctolagus cuniculus.
Experiment [4] deals with T1, Coagulation factor X. Put plainly: Compound was tested for the inhibition of serine protease factor Xa enzyme.

Sequence of Tissue-type plasminogen activator (P00750 whole entry): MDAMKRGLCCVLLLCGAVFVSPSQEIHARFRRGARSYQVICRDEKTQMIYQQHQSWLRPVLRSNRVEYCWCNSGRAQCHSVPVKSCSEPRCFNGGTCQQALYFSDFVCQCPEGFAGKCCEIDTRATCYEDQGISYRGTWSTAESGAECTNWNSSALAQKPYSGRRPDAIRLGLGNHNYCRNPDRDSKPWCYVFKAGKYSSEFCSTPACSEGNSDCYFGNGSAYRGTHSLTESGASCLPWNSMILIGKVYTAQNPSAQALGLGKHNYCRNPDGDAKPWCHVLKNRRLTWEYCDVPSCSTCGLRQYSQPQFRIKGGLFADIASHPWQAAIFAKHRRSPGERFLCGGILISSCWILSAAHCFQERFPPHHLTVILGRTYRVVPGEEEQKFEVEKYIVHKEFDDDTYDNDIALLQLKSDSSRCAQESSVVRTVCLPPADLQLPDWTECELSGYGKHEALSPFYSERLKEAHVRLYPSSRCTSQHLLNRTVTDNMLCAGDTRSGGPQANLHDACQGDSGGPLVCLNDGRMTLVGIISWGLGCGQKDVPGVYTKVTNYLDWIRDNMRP
Sequence of Plasminogen (P00747 97-580 limits assumed): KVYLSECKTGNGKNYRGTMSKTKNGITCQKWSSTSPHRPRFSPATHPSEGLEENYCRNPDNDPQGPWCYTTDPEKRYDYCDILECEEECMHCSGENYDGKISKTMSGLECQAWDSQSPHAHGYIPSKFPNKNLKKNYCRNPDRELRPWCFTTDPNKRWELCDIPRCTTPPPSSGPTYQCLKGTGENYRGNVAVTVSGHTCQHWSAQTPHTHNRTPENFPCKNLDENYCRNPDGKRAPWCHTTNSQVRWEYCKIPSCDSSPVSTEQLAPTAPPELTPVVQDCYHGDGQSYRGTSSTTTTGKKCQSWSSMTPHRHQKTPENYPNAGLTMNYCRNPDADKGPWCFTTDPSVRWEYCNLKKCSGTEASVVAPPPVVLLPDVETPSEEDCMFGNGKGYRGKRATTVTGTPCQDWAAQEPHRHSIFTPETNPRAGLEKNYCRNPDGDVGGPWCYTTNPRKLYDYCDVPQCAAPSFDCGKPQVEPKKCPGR
Sequence of Plasminogen (P00747 581-810 limits assumed): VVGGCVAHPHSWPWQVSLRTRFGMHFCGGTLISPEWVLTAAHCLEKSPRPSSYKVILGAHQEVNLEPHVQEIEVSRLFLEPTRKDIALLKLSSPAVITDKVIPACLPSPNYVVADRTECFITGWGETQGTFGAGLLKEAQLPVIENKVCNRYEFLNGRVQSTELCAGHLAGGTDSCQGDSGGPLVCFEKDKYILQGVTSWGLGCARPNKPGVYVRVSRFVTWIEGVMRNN

By Ki is commonly meant a measure of affinity in units of concentration, obtained from inhibition or displacement. Low readings indicate tighter binding, high ones weaker binding. Take `COC(=O)CN(CCc1ccc(-c2ccccc2S(N)(=O)=O)cc1)c1cccc(C(=N)N)c1.O=C(O)C(F)(F)F`: the figures for the Ki at Coagulation factor X [1], on Prothrombin and at Trypsin were 10 nM, 400 nM and 56 nM, respectively.

As for `N=C(N)c1cccc(N(CCO)CCCc2ccc(-c3ccccc3S(N)(=O)=O)cc2)c1.O=C(O)C(F)(F)F`, the Ki on Coagulation factor X [1] was found to be 17 nM; on Prothrombin, 1800 nM; on Trypsin, 710 nM.

On to `CC(=O)CN(CCCc1ccc(-c2ccccc2S(N)(=O)=O)cc1)c1cccc(C(=N)N)c1.O=C(O)C(F)(F)F`, for which the Ki at Coagulation factor X [1] came to 16 nM; at Prothrombin, 900 nM; on Trypsin it was 360 nM.

With `COC(=O)CN(CCCOc1ccc(-c2ccccc2S(N)(=O)=O)cc1)c1cccc(C(=N)N)c1.O=C(O)C(F)(F)F`, the Ki at Coagulation factor X [1] turned out to be 6.7 nM; at Prothrombin, 600 nM; on Trypsin, 77 nM.

On to `N=C(N)c1cccc(N(CCCc2ccc(-c3ccccc3S(N)(=O)=O)cc2)CC(=O)O)c1.O=C(O)C(F)(F)F`, for which the inhibition constant (Ki) at Coagulation factor X [1] was 12 nM; at Prothrombin, 1400 nM; on Trypsin, 470 nM.

In general, IC50 refers to the concentration that gives 50% inhibition. The low end stands for greater potency, the high end for weaker potency. Consider `COC(=O)CN(CCCc1ccc(-c2ccccc2S(N)(=O)=O)cc1)c1cccc(C(=N)N)c1.O=C(O)C(F)(F)F`, for which the Ki in experiment [2] stood at 33 µM; on Coagulation factor VII, 4.2 µM; at Coagulation factor X [1], 1.3 nM; on Plasminogen, 300 nM; at Prothrombin it was 200 nM; at Trypsin it was 39 nM. This compound also yielded an IC50 in experiment [3] of 10 µM.

For the compound `COC(=O)CC1(C(=O)Nc2ccc(-c3ccccc3S(N)(=O)=O)cc2)CC(c2cccc(C(=N)N)c2)=NO1` (stereo not given), the Ki at Coagulation factor X [1] is 6.3 nM.

Regarding `CC(C)OC(=O)CN(CCCc1ccc(-c2ccccc2S(N)(=O)=O)cc1)c1cccc(C(=N)N)c1.O=C(O)C(F)(F)F`, the Ki at Coagulation factor X [1] worked out at 7.5 nM; on Prothrombin, 500 nM; at Trypsin it was 74 nM.

`COC(=O)CC(CCc1ccc(C(=N)N)cc1)c1cccc(C(=N)N)c1` (stereo not given) displayed a Ki on Coagulation factor X [1] of 34 nM.

For `COC(=O)CN(CCOc1ccc(-c2ccccc2S(N)(=O)=O)cc1)c1cccc(C(=N)N)c1.O=C(O)C(F)(F)F`, the results for the Ki at Coagulation factor X [1], on Prothrombin and at Trypsin were 0.53 nM, 200 nM and 19 nM, respectively.

In the case of `N=C(N)c1cccc(N(CCCc2ccc(-c3ccccc3S(N)(=O)=O)cc2)CCOc2ccccc2)c1`, the Ki at Coagulation factor X [1] stood at 16 nM; at Prothrombin it was 300 nM.

`CC(C)OC(=O)CN(CCOc1ccc(-c2ccccc2S(N)(=O)=O)cc1)c1cccc(C(=N)N)c1.O=C(O)C(F)(F)F`: the Ki is 2.1 nM on Coagulation factor X [1], 300 nM on Prothrombin and 52 nM at Trypsin.

In the case of `N=C(N)c1cccc(NS(=O)(=O)CCc2ccc(-c3ccccc3S(N)(=O)=O)cc2)c1.O=C(O)C(F)(F)F`, the Ki on Coagulation factor X [1] was determined as 51 nM; on Prothrombin it was 17000 nM; on Trypsin, 1400 nM.

`COCCN(CCCc1ccc(-c2ccccc2S(N)(=O)=O)cc1)c1cccc(C(=N)N)c1.O=C(O)C(F)(F)F`: the Ki at Coagulation factor X [1] was determined as 11 nM; at Prothrombin, 900 nM; at Trypsin it was 330 nM.

As to `N=C(N)c1cccc(NCCCc2ccc(-c3ccccc3S(N)(=O)=O)cc2)c1.O=C(O)C(F)(F)F`, the Ki on Coagulation factor X [1] was found to be 83 nM; at Prothrombin it was 6100 nM; on Trypsin it was 850 nM.

On Coagulation factor X [1], `COC(=O)CC1(C(=O)Nc2ccc(C(=N)N)cc2)CC(c2cccc(C(=N)N)c2)=NO1` (stereo not given) displayed an inhibition constant Ki of 94 nM.

As for `CC(C)OC(=O)CN(c1cccc(C(=N)N)c1)S(=O)(=O)CCc1ccc(-c2ccccc2S(N)(=O)=O)cc1.O=C(O)C(F)(F)F`, the Ki on Coagulation factor X [1] was 37 nM; at Prothrombin, 15000 nM; at Trypsin, 220 nM.

Take `N=C(N)c1cccc(N(CCCc2ccc(-c3ccccc3S(N)(=O)=O)cc2)CC(N)=O)c1.O=C(O)C(F)(F)F`: the inhibitory constant (Ki) on Coagulation factor X [1] came to 19 nM; on Prothrombin it was 3500 nM; on Trypsin, 820 nM.

As to `COC(=O)CN(c1cccc(C(=N)N)c1)S(=O)(=O)CCc1ccc(-c2ccccc2S(N)(=O)=O)cc1.O=C(O)C(F)(F)F`, the Ki at Coagulation factor X [1] amounted to 21 nM; at Prothrombin, 9000 nM; on Trypsin, 180 nM.

Consider `CC(=N)N1CC[C@H](Oc2ccc([C@H](Cc3ccc4ccc(C(=N)N)cc4c3)C(=O)O)cc2)C1` [DX-9065A], for which half-maximal inhibition on Coagulation factor X [4] (IC50) was put at 41 nM.
